pKi: −log10 of the molar value.

Experiment [1] addresses Induced myeloid leukemia cell differentiation protein Mcl-1 (Homo sapiens, UniProt Q07820). The experiment can be described thus: Binding affinity to Mc1-1 (unknown origin) by fluorescence polarization competition assay. Background: Fluorescence polarisation rises when a labelled molecule tumbles more slowly, as on binding a larger partner.
Another experiment concerns the target Bcl-2-like protein 1 (Homo sapiens, UniProt Q07817). The experiment can be described thus: Binding affinity to Bc1-xL (unknown origin) by fluorescence polarization competition assay. Particulars: for pKi: read-out: Ki; call rule not given here.

Sequence of Bcl-2-like protein 1 (Q07817 whole entry): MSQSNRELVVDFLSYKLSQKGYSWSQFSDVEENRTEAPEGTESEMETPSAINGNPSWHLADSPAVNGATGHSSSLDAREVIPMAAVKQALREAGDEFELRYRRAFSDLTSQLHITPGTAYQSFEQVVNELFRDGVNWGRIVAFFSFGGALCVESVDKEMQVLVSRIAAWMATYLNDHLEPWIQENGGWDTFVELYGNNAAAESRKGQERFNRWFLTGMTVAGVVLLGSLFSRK
Sequence of Induced myeloid leukemia cell differentiation protein Mcl-1 (Q07820 whole entry): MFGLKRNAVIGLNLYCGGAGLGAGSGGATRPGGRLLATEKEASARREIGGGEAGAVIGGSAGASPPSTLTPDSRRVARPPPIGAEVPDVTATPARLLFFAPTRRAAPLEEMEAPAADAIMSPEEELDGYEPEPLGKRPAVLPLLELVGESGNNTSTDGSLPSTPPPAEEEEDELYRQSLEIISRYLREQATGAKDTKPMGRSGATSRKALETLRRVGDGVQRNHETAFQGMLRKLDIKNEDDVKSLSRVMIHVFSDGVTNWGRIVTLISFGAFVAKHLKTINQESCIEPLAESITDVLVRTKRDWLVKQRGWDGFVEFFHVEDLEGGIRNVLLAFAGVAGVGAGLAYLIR

For `Cc1ccc(-c2cn(Cc3cccc4ccccc34)c3cccc(-c4ccccc4C(=O)O)c23)cc1`, the pKi in experiment [1] is 6.64; on Bcl-2-like protein 1 it was less than 3.70. Taken in the same sequence, the figures for `COc1cccc(-c2cn(Cc3cccc4ccccc34)c3cccc(-c4ccccc4C(=O)O)c23)c1` were 6.54 and less than 3.70. For `CCc1ccccc1-c1cn(CCOc2cccc3ccccc23)c2cccc(-c3ccccc3C(=O)O)c12`, in that order: 6.57 and less than 3.70. For `COc1ccccc1-c1cn(CCOc2cccc3ccccc23)c2cccc(-c3ccccc3C(=O)O)c12`, in that order: 6.77 and less than 3.70. With `Cc1cccc(-c2cn(CCOc3cccc4ccccc34)c3cccc(-c4ccccc4C(=O)O)c23)c1C`, the pKi is 6.15 in experiment [1] and less than 3.70 at Bcl-2-like protein 1. As to `O=C(O)c1ccccc1-c1cccc2c1ccn2CCCOc1cccc2ccccc12`, in experiment [1], the pKi was 5.92. Besides, at Bcl-2-like protein 1, the Ki entry was “Not Active”.

With `O=C(O)c1ccc(Cl)cc1-c1cccc2c1ccn2CCCOc1cccc2ccccc12`, the results for the pKi (in experiment [1]; at Bcl-2-like protein 1) were 6.66 and 5.64, respectively. For `Cc1cccc(-c2cn(CCCOc3cccc4ccccc34)c3cccc(-c4ccccc4C(=O)O)c23)c1`, in that order: 5.88 and less than 3.70.

On to `Cc1ccccc1-c1cn(CCOc2cccc3ccccc23)c2cccc(-c3ccccc3C(=O)O)c12`, for which the results for the pKi (in experiment [1]; on Bcl-2-like protein 1) were 6.77 and less than 3.70, respectively. For `Cc1cccc(-c2cn(Cc3cccc4ccccc34)c3cccc(-c4ccccc4C(=O)O)c23)c1`, in that order: 6.02 and less than 3.70. Taken in the same sequence, the figures for `O=C(O)c1ccccc1-c1cccc2c1c(-c1cccc(Cl)c1)cn2CCOc1cccc2ccccc12` were 6.44 and 5.64. As to `Cc1ccccc1-c1cn(Cc2cccc3ccccc23)c2cccc(-c3ccccc3C(=O)O)c12`, the pKi in experiment [1] was 7.15; on Bcl-2-like protein 1, less than 3.70. For `Cc1cccc(-c2cn(CCOc3cccc4ccccc34)c3cccc(-c4ccccc4C(=O)O)c23)c1`, in that order: 6.04 and less than 3.70. Taken in the same sequence, the figures for `O=C(O)c1ccccc1-c1cccc2c1c(-c1ccccc1)cn2Cc1cccc2ccccc12` were 6.92 and less than 3.70. Taken in the same sequence, the figures for `O=C(O)c1ccccc1-c1cccc2c1c(-c1cccc(Cl)c1)cn2Cc1cccc2ccccc12` were 6.35 and less than 3.70. `COc1ccccc1-c1cn(Cc2cccc3ccccc23)c2cccc(-c3ccccc3C(=O)O)c12`: the figures for the negative logarithm of the Ki (pKi) (in experiment [1]; at Bcl-2-like protein 1) were 6.57 and less than 3.70, respectively. For `O=C(O)c1ccccc1-c1cccc2c1c(-c1cccc(C(F)(F)F)c1)cn2CCOc1cccc2ccccc12`, in that order: 7.52 and 5.21. Taken in the same sequence, the figures for `CC(C)c1ccccc1-c1cn(CCOc2cccc3ccccc23)c2cccc(-c3ccccc3C(=O)O)c12` were 6.77 and less than 3.70. Taken in the same sequence, the figures for `O=C(O)c1ccccc1-c1cccc2c1c(-c1cccc(C(F)(F)F)c1)cn2Cc1cccc2ccccc12` were 6.72 and less than 3.70.

Regarding `Cc1ccc(-c2cn(CCOc3cccc4ccccc34)c3cccc(-c4ccccc4C(=O)O)c23)cc1`, the negative logarithm of the Ki (pKi) in experiment [1] was 6.60; on Bcl-2-like protein 1, less than 3.70. Taken in the same sequence, the figures for `O=C(O)c1ccccc1-c1cccc2c1c(-c1cccc(C(F)(F)F)c1)cn2CCCOc1cccc2ccccc12` were 6.55 and 5.51. `Cc1cc2c(C(C)C)c(O)c(O)c(C=O)c2c(O)c1-c1c(C)cc2c(C(C)C)c(O)c(O)c(C=O)c2c1O` [GOSSYPOL]: the pKi at Bcl-2-like protein 1 was 6.21. On to `CC1(C)CCC(CN2CCN(c3ccc(C(=O)NS(=O)(=O)c4ccc(NCC5CCOCC5)c([N+](=O)[O-])c4)c(Oc4cnc5[nH]ccc5c4)c3)CC2)=C(c2ccc(Cl)cc2)C1` [VENETOCLAX], for which the pKi in experiment [1] is less than 3.70.

Usually pKi stands for the negative decadic logarithm of the Ki, by convention in mol/L.

These data come from ChEMBL document CHEMBL4811307, “Design, synthesis and biological evaluation of dual Bcl-2/Mcl-1 inhibitors bearing 2-(1H-indol-4-yl)benzoic acid scaffold” (Bioorg Med Chem Lett, 2021).
